Data reported in ChEMBL document CHEMBL5108059, “Discovery of 2-Methyl-2-(4-(2-methyl-8-(1H-pyrrolo[2,3-b]pyridin-6-yl)-1H-naphtho[1,2-d]imidazol-1-yl)phenyl)propanenitrile as a Novel PI3K/mTOR Inhibitor with Enhanced Antitumor Efficacy In Vitro and In Vivo” (J Med Chem, 2022).

Tested on: HeLa
Experiment: Inhibition of PI3K/mTOR signalling pathway in human HeLa cells assessed as inhibition of Akt phosphorylation at Thr308 residue incubated for 24 hrs by Western blot analysis
Assay type: cell-based
Settings: dose 0.3125-2.5 µM, DDE = dose-dependent effect

SMILES: Cc1nc2cnc3ccc(-c4cnc5[nH]ccc5c4)cc3c2n1-c1ccc(C(C)(C)C#N)nc1
- inhibition: Dde
